Measurements reported in patent US20120309767A1, “PROCESS FOR THE PREPARATION OF ALPHA FORM OF IMATINIB MESYLATE” (priority 2010, published 2012).
Like-named read-outs stand apart in the source and are kept apart here.

Conditions: 40° C. and 75 RH; for Identification by IR: vs working standard of Imatinib Mesylate (Form-α)
Protocol: FTIR (Fourier transform infrared spectrophotometer) • Make: SHIMADZU, IR Prestige-21 • Sample preparation: KBr pellets • 3. […] HPLC: Used Agilent 1200, VWD detector, system gradient Instrument conditions are:
A stability study was performed on the alpha form of imatinib mesylate at 40° C. and 75 RH for 3 months.

Compound: CS(=O)(=O)O.Cc1ccc(NC(=O)c2ccc(CN3CCN(C)CC3)cc2)cc1Nc1nccc(-c2cccnc2)n1 [Example 2]
- Assay [by HPLC] (on anhydrous) (1M): 99.94%
- Descriptions (1M): White
- Water content by KF (1M): 0.55 % w/w
- Identification by IR (1M): concordant
- Assay [by HPLC] (on anhydrous) (2M): 99.70%
- Descriptions (2M): White
- Related Substance [by HPLC] Unknown impurity RRT = 0.81 (2M): 0.03 % w/w
- Water content by KF (2M): 0.61 % w/w
- Identification by IR (2M): concordant
- Assay [by HPLC] (on anhydrous) (3M): 99.75%
- Descriptions (3M): White
- Related Substance [by HPLC] Known impurities: Impurity-1 (3M): 0.02 % w/w
- Related Substance [by HPLC] Unknown impurity RRT = 0.81 (3M): 0.02 % w/w
- Water content by KF (3M): 0.56 % w/w
- Identification by IR (3M): concordant
- Assay [by HPLC] (on anhydrous) (Initial): 99.98%
- Descriptions (Initial): White
- Related Substance [by HPLC] Total impurities (Initial): 0.04 % w/w
- Related Substance [by HPLC] Unknown impurity RRT = 0.81 (Initial): 0.04 % w/w
- Water content by KF (Initial): 0.52 % w/w
- Identification by IR (Initial): concordant
